Where a name gives a salt, the structure may show the parent alone.
Key:
[1] = system: RG2 tumor capillary endothelium; assay: Transmission electron microscopy of vesicular transport in tumor capillary endothelium; type: in vivo, rat; conditions: i.c. MS 30 μg/kg/min 15 min
Source text: S., Rao, […]., and Black, K. L. Regulation of blood-brain tumor barrier permeability by calcium-activated potassium channels J. Pharmacol. Exp. Ther., 301:838-851, 2002). […] S., Rao, […]., and Black, K. L. Regulation of blood-brain tumor barrier permeability by calcium-activated potassium channels J. Pharmacol. Exp. Ther., 301:838-851, 2002). Briefly, micrographs were placed on a digitizing screen and structural features measued using Scan […]TM, a computer-assisted, image analysis system (Jandel Scientific, Corte Madera, Calif.). Abluminal and luminal circumferences, areas of endothelial cytoplasm excluding nuclei and vacuoles, and mean thickness of endothelial cytoplasm were measured and compared with those in the control group. The mean thickness of endothelium was calculated by subtraction of the luminal radius from the abluminal radius, which was obtained from the areas encircled by the luminal and abluminal circumferences, respectively. The proportion of total vesicular area to the cytoplasmic area was expressed as a percentage in order to derive another parameter to characterize vesicular transport.

[2] = system: metastatic breast brain tumors; assay: [14C]AIB uptake in metastatic breast brain tumor model; type: in vivo, rat; conditions: intravenous co-injection
[3] = Physiological measurements during BTB permeability determination; type: in vivo, rat
Method: All animal experiments were conducted in accordance with policies set by the Institutional Animal Care and Usage Committee and NIH guidelines. A rat syngeneic tumor model was prepared using female Wistar rats and a human-tumor xenograft model in athymic nude rats weighing 180-200 g were prepared for the BBB/BTB permeability studies. Although brain tumor blood vessel development is rapid in rats compared to humans, this variable should not affect the findings or conclusions because the study analyzes the response of blood vessels, regardless of how rapidly they developed, to vasomodulators. The optimum number of tumor cells and incubation period for in vivo tumor growth was determined in separate experiments. Rat glioma (RG2) cells (1×10^5) in 5 μl of medium with 1.2% methylcellulose were injected into the basal ganglia of Wistar rats, while nude rats were injected with glioblastoma multiforme (GBM) primary cells (5×10^5). The coordinates were 5-mm lateral to the bregma and 4.5 mm deep to the basal ganglia. Seven days (for RG2 tumor) and 3-4 weeks (for GBM) after tumor implantation, the rats were prepared for permeability study as described by (Ningarsj, N. S., Rao, M., Hashizume, K., Asotra, K., and Black, K. L. Regulation of blood-brain tumor barrier permeability by calcium-activated potassium channels J. Pharmacol. Exp. Ther., 301:838-851, 2002; Ningaraj, N. S., Rao, M., and Black, K. L. Calcium-dependent potassium channels as a target protein ir. the modulation of blood-brain humor barrier. Drug News and Perspectives, 16:1-8, 2003). In regional permeability studies, 5 min after the start of the intracarotid (i.c.) infusion, 100 μCi/kg of [^14C] AIB, [^14C] dextran or [^14C] carboplatin to 1 ml phosphate buffer saline (PBS) was injected as an intravenous (i.v.) bolus within a 15 second period. To determine whether the infusion of vasomodulators would affect cerebral blood flow (CBF) at the tumor area, Cerebral Laser-Doppler Flowmetry (LDF) using a Laser-Doppler (DRT4, Moore Instruments Ltd., England) equipped with a DP3 optical (1 mm diameter) probe during 15 min i.c. infusion of vasomodulators in some rats (n=3/group) was used as described in Ningarsj, N. S., Rao, M., Hashizume, K., Asotra, K., and Black, K. L. Regulation of blood-brain tumor barrier permeability by calcium-activated potassium channels J. Pharmacol. Exp. Ther., 301:838-851, 2002; and Ningaraj, N. S., Rao, M., and Black, K. L. Calcium-dependent potassium channels as a target protein ir. the modulation of blood-brain humor barrier. Drug News and Perspectives, 16:1-8, 2003. Rats with abnormal CBF, blood gases or blood pressure were excluded from the study.
The physiological parameters were determined either before or during vasomodulator infusion. The values are mean±SD of n>4 rats, except for cerebral blood flowmetry (CBF) where three representative rats per group were used. pH is arterial pH; PaO2 is arterial oxygen; PaCO2 is arterial carbon dioxide; and MAP is mean arterial blood pressure.

[4] = system: GBM xenograft; assay: In vivo BTB permeability (Ki by QAR) in GBM-xenograft nude rat model
Method: All animal experiments were conducted in accordance with policies set by the Institutional Animal Care and Usage Committee and NIH guidelines. A rat syngeneic tumor model was prepared using female Wistar rats and a human-tumor xenograft model in athymic nude rats weighing 180-200 g were prepared for the BBB/BTB permeability studies. Although brain tumor blood vessel development is rapid in rats compared to humans, this variable should not affect the findings or conclusions because the study analyzes the response of blood vessels, regardless of how rapidly they developed, to vasomodulators. The optimum number of tumor cells and incubation period for in vivo tumor growth was determined in separate experiments. Rat glioma (RG2) cells (1×10^5) in 5 μl of medium with 1.2% methylcellulose were injected into the basal ganglia of Wistar rats, while nude rats were injected with glioblastoma multiforme (GBM) primary cells (5×10^5). The coordinates were 5-mm lateral to the bregma and 4.5 mm deep to the basal ganglia. […]
The unilateral transfer constant, Ki (μl/g/min), which is an initial rate for blood-to-brain transfer of a radiotracer, was calculated as described by Ohno et al. (Ohno, K., Pettigrew, K. O., and Rapsport, S. T. Lower limits of cerebrovascular permeability to […] in the conscious rat. Am. J. Physiol., 253: H299-H307, 1978). […]

[5] = before or during vasomodulator infusion, mean±SD

Nc1cc(N2CCCCC2)nc(N)[n+]1OS(=O)(=O)[O-] [MS, minoxidil sulfate]
Endothelial tight junction indices in tumor capillaries [1]: did not alter the endothelial tight junction indices | Vesicular density in tumor capillary endothelium [1]: significantly increased vesicular density | Level of [14C]AIB in brain tumor tissue versus saline [2]: approximately three times as great | Level of [14C]AIB surrounding the tumor and in contralateral brain versus vehicle [2]: does not differ significantly | PaCO2 [3, 5]: 45 ± 1 mm Hg | PaO2 [3, 5]: 90 ± 5 mm Hg | pH (arterial pH) [3, 5]: 7.38 ± 0.01 | Effect on CBF ([3]; i.c. 30 μg/kg/min, laser Doppler): not to significantly affect CBF | CBF (% change vs. vehicle) ([3]; laser-Doppler flowmetry, three rats per group): 8 ± 3 % change vs. vehicle | BTB permeability (Ki) ([4]; GBM xenograft nude rat, i.c. MS 30 μg/kg/min, glibenclamide 5 μg/kg/min for 15 min): 52 ± 8 µL/g/min | BBB permeability in normal brain surrounding tumor or normal contralateral brain ([4]; i.c. infusion): did not significantly affect BBB permeability
